Data taken from patent EP0563345B1, “NOVEL 4-ARYLPIPERAZINES AND 4-ARYLPIPERIDINES” (MCNEILAB, INC., priority 1991, dated 1993).
pKi: −log10 of the molar value. Counter-ions that a name gives are not always drawn. Like-named read-outs stand apart in the source and are kept apart here.

What was measured:
[1] = tested on: Male, Fischer 344 rats; test: Block of Conditioned Avoidance Responding (Rat) test (CAR); details: for CAR 15 mg/kg IP Administration (% change CAR) / CAR 5 mg/kg IP Administration (% change CAR): negative number = blockade of CAR
Excerpt: Apparatus: Rat operant chambers, housed within sound attenuated booths, both from Capden Instruments Ltd., were used in this test. The test chamber (8" H x […] D) is constructed of aluminum and plexiglass with floor grid bars of stainless-steel (1/8" O.D.) spaced 9/16" apart. A stainless-steel operation level 1-1/2" wide projects 3/4" into the chamber and is positioned 2-2/8" above the grid floor. The shock stimulus is delivered via the grid floor by a Coulbourn Instruments solid state module. The parameters of the test and the collection of data are controlled automatically.
The rats are trained for two weeks to approach criterion levels in the avoidance test (90% avoidance rate). One-hour training sessions are run at about the same time each day for four or five days a week. The training session consists of 120 trials, with the conditioned stimuli presented every 30 sec. A trial begins with presentation of the conditioned stimuli (a light and a tone). If the rat responds by depressing the operant lever during the 15-second presentation of the conditioned stimuli, the trial is terminated and the animal is credited with a CAR. Failure to respond during the conditioned stimuli causes the presentation of the unconditioned stimulus (UCS), a 0.7 mA shock which is accompanied by a light and tone for five seconds. If the rat depressed the lever within the ten-second period, the shock and trial are terminated and an escape response recorded. If the rat fails to depress the lever during the UCS (shock), the trial is terminated after ten seconds of shock and the absence of a response is scored as a failure to escape. Intertrial level presses have no effect. If a rat performs at the 90% CAR level for two weeks, it is then run twice a week on the test schedule (see below) until baseline performance stabilized.
Trained rats are run in a one-hour session on two consecutive days at the same time and in the same test chamber each day. The sessions consist of 60 trials, one every minute. The conditioned stimuli are presented for 15 sec (maximum) and the unconditioned stimuli five sec (maximum). On Day 1, a vehicle solution is administered to the rats at a time preceding the trial run corresponding to the pretreatment time for the test compound. The route of administration and the volume of vehicle are also matched to that of the test compound.
The percent change in CAR on the drug treatment day compared to vehicle pretreatment day is the key measure. The percent change (% change) in CAR is determined using the following formula: % change CAR = ((% CAR for Day 2/% CAR for Day 1) x 100)-100 [formula]
A negative number indicates a blockade of CAR, whereas a positive number would indicate increased CAR. The test results are reported as the mean % change for the group of rats. Failure to escape, a measure of the general sedative potential of the compound, was calculated for each animal as follows: % Failures = # of Failures to Escape/# of trials [formula]
The % failures, viz., loss of escape, is also reported as a group mean. Failures to escape are monitored closely and a session is terminated if ten failures occurred.
In the Tables and formulas therein, OiPr is isopropoxy, Me is methyl, MeO is methoxy, Et is ethyl, Ph is phenyl, n-Bu is normal butyl, cC6H11 is cyclohexyl, BOC is t-butyloxycarbonyl, Ac is acetyl, and NT is not tested in that partcular test. The escape loss numbers are shown at CAR 5 mg/kg unless otherwise noted.

[2] = target: T1, D-2 (dopamine-2) receptors (Rattus norvegicus, UniProt P61169); test: biochemical; type: binding, male, Wistar rats; details: for Ki: rat striatum P2 fraction, 3H-spiperone 0.05 nM, read-out: Receptor Binding (Ki nM) D2
T1 construct: The D2 assay employed a P2 fraction from the striatum, the ligand ^3H-spiperone at a concentration of 0.05 nM; from tissue; host or cells: rat striatum, P2 fraction (synaptosomal membranes), male Wistar rats
Procedure: The dopamine D2 binding activity of compounds was determined using a P2 fraction (synaptosomal membranes) prepared from male, Wistar rats.
The data from this assay were analyzed by calculating the percent inhibition of the binding of the tritiated ligands by given concentrations of the test compound. Kl values, where given, were obtained from the logit analysis of concentration-inhibition curves.

T1 sequence (P61169 whole entry): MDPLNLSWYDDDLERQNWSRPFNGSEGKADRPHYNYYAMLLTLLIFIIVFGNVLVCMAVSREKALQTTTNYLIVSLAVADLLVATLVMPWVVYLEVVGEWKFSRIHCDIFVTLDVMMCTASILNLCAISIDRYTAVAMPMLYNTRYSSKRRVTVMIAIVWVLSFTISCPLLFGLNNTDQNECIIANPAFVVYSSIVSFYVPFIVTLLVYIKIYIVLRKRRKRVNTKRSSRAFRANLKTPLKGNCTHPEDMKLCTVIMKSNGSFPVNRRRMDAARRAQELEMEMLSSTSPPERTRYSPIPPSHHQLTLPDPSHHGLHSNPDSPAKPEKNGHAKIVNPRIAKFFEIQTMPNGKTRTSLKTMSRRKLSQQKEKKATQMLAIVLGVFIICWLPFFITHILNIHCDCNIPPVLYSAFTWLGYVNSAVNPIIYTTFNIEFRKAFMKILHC

Row | SMILES | CAR 15 mg/kg IP Administration (% change CAR) [1] [%] | (Escape Loss) % failures to escape ([1]; at CAR 15 mg/kg IP) [%] | Ki [2] [nM] | also measured
1 | CC(C)Oc1ccccc1N1CCN(Cc2cccc(C(=O)N3CCCCC3CO)c2)CC1 (stereo not drawn) [Compound 21] | -99 | 43 | 5.2 | 
2 | CC(C)Oc1ccccc1N1CCN(Cc2ccccc2C(=O)N2CCOCC2)CC1 [Compound 110] |  |  | 32 | 
3 | CC(C)Oc1ccccc1N1CCN(Cc2cccc(C(=O)N3CCC4(CC3)OCCO4)c2)CC1 [Compound 45] |  |  |  | CAR 5 mg/kg IP Administration (% change CAR) [1]: -95%; (Escape Loss) % failures to escape ([1]; at CAR 5 mg/kg IP): 20%; pKi [2]: 7.70
4 | O=C(c1cccc(CN2CCN(c3cccc([N+](=O)[O-])c3)CC2)c1)N1CCCCC1 [Compound 49] | -78 | 0 |  | 
5 | CCOC(=O)C1CCN(C(=O)c2ccccc2CN2CCN(c3ccccc3OC(C)C)CC2)CC1 [Compound 108] |  |  | 10.4 | 
6 | CC(C)Oc1ccccc1N1CCN(Cc2cccc(C(=O)N3CCC[C@H]3C(=O)OCc3ccccc3)c2)CC1 [Compound 13] | -4 | 0 | 10 | 
7 | O=C(c1cccc(CN2CCN(c3ccccc3F)CC2)c1)N1CCCCC1 [Compound 22] | -84 | 21 |  | 
8 | CC(C)Oc1ccccc1N1CCN(Cc2cccc(S(=O)(=O)N3CCCC3)c2)CC1 [Compound 106] |  |  | 196 | CAR 5 mg/kg IP Administration (% change CAR) [1]: -27%; (Escape Loss) % failures to escape ([1]; at CAR 5 mg/kg IP): 0%
9 | COc1ccc(CN2CCN(c3ncccn3)CC2)cc1C(=O)N1[C@H](C)CCC[C@@H]1C [Compound 6] |  |  | 808 | 
10 | CC(C)Oc1ccccc1N1CCN(Cc2cccc(C(=O)N3CC4CCC(CC4)C3)c2)CC1 [Compound 96] | -98 | 67 |  | 
11 | CC(C)Oc1ccccc1N1CCN(Cc2cccc(C(=O)NCCCCCCNC(=O)OC(C)(C)C)c2)CC1 [Compound 98] | -8 | 0 | 88 | 
12 | CCN(CC)C(=O)c1cccc(CN2CCN(c3ccccc3OC(C)C)CC2)c1 [Compound 68] |  |  |  | CAR 5 mg/kg IP Administration (% change CAR) [1]: -96%; (Escape Loss) % failures to escape ([1]; at CAR 5 mg/kg IP): 14%
13 | CCOC(=O)C1CCCCN1C(=O)c1cccc(CN2CCN(c3ccccc3OC(C)C)CC2)c1 (stereo not drawn) [Compound 19] | -97 | 46 | 4.1 | 
14 | CC(C)Oc1ccccc1N1CCN(Cc2cccc(C(=O)N3CCCC3)c2)CC1 [Compound 52] |  |  |  | CAR IP Administration (% change CAR) at 7.5 mg/kg ([1]; 7.5 mg/kg IP): -98%; (Escape Loss) % failures to escape ([1]; at CAR 7.5 mg/kg IP): 0%
15 | CC(C)Oc1ccccc1N1CCN(Cc2cccc(S(=O)(=O)N3CCC(O)CC3)c2)CC1 [Compound 107, 1-[3-[[4[2-(1-Methylethoxy)phenyl]-1-piperazinyl]methyl]phenylsulfonyl]-4-hydroxypiperidine] |  |  | 69 | CAR 5 mg/kg IP Administration (% change CAR) [1]: -95%; (Escape Loss) % failures to escape ([1]; at CAR 5 mg/kg IP): 5%
16 | COc1ccc(OC)c(N2CCN(Cc3cccc(C(=O)N4CCCCC4)c3)CC2)c1 [Compound 46] |  |  | 592 | CAR 5 mg/kg IP Administration (% change CAR) [1]: -66%; (Escape Loss) % failures to escape ([1]; at CAR 5 mg/kg IP): 48%
17 | CC(C)Oc1ccccc1N1CCN(Cc2cccc(C(=O)N3CCC3)c2)CC1 [Compound 51] | -88 | 0 |  | 

Row | SMILES | CAR 15 mg/kg IP Administration (% change CAR) [1] [%] | (Escape Loss) % failures to escape ([1]; at CAR 15 mg/kg IP) [%] | Ki [2] [nM] | also measured
18 | CCN1CCCC1CNC(=O)c1cccc(CN2CCN(c3ccccc3OC(C)C)CC2)c1 (stereo not drawn) [Compound 76] | -75 | 0 | 13.9 | 
19 | CC(C)Oc1ccccc1C1CCN(Cc2cccc(C(=O)N3[C@H](C)CCC[C@@H]3C)c2)CC1 [Compound 40] |  |  |  | CAR 5 mg/kg IP Administration (% change CAR) [1]: -98%; (Escape Loss) % failures to escape ([1]; at CAR 5 mg/kg IP): 37%
20 | CC(C)Oc1ccccc1N1CCN(Cc2cccc(C(=O)N3CCN(Cc4ccccc4)CC3)c2)CC1 [Compound 64] |  |  | 40 | CAR IP Administration (% change CAR) at 30 mg/kg ([1]; 30 mg/kg IP): -23%; (Escape Loss) % failures to escape ([1]; at CAR 30 mg/kg IP): 2%
21 | CC(C)Oc1ccccc1C1CCN(Cc2cccc(C(=O)N3CCCCC3)c2)CC1.Cl [Compound 38, 1-[3-[[4-[2-(1-Methylethoxy)phenyl]-1-piperidinyl]methyl]benzoyl]-piperidine hydrochloride] |  |  | 2.8 | CAR 5 mg/kg IP Administration (% change CAR) [1]: -92%; (Escape Loss) % failures to escape ([1]; at CAR 5 mg/kg IP): 5%
22 | CC(=O)Nc1ccc(CN2CCN(c3ccccc3OC(C)C)CC2)cc1C(=O)N1CCCCC1 [Compound 28] | -100 | 17 | 29 | 
23 | CC(C)Oc1ccccc1N1CCN(Cc2cccc(C(=O)N3C(C)CCC3C)c2)CC1 (stereo not drawn) [Compound 2] |  |  | 4.7 | 
24 | O=C(c1cccc(CN2CCN(c3cccc(Cl)c3)CC2)c1)N1CCCCC1 [Compound 91] |  |  |  | CAR 5 mg/kg IP Administration (% change CAR) [1]: -36%; (Escape Loss) % failures to escape ([1]; at CAR 5 mg/kg IP): 21%
25 | CC(C)Oc1ccccc1N1CCN(CCCC(=O)c2ccc(C(=O)N3CCCCC3)cc2)CC1 [Compound 100, fumarate] |  |  | 11 | 
26 | CC(C)Oc1ccccc1N1CCN(CCCC(O)c2ccc(C(=O)N3CCCCC3)cc2)CC1 (stereo not drawn) [Compound 101, bisoxalate] |  |  | 13 | 
27 | O=C(c1cccc(CN2CCN(c3ccccc3)CC2)c1)N1CCCCC1 [Compound 95] | -82 | 11 |  | 
28 | COc1ccccc1N1CCN(Cc2cccc(C(=O)N3CCCCCC3)c2)CC1 [Compound 85] |  |  |  | CAR 5 mg/kg IP Administration (% change CAR) [1]: -95%; (Escape Loss) % failures to escape ([1]; at CAR 5 mg/kg IP): 22%
29 | CC(C)Oc1ccccc1N1CCN(Cc2ccccc2C(=O)N2CCCC(C)(C)C2)CC1 [Compound 109] |  |  | 7 | 
30 | CC(C)Oc1ccccc1N1CCN(CCCCc2ccc(C(=O)N3CCCCC3)cc2)CC1 [Compound 102, 1-[4-[4-[4-[2-(1-Methylethoxy)phenyl]-1-piperazinyl]butyl]benzoyl]piperidine dihydrobromide] |  |  | 7.2 | 
31 | CC(C)Oc1ccccc1N1CCN(Cc2cccc(C(=O)N3CCC4CCCCC43)c2)CC1 (stereo not drawn) [Compound 4] |  |  | 5.6 | 
32 | CCCCN(CCCC)C(=O)c1cccc(CN2CCN(c3ccccc3OC(C)C)CC2)c1 [Compound 69] | -6 | 0 |  | 
33 | C[C@@H]1CCC[C@H](C)N1C(=O)c1cccc(CN2CCN(c3ccccc3C#N)CC2)c1 [Compound 3] |  |  | 303 | 
34 | CC(C)Oc1ccccc1N1CCN(Cc2ccc([N+](=O)[O-])c(C(=O)N3CCCCC3)c2)CC1 [Compound 7] |  |  | 85 | 
